Laboratory results as given in patent US10765114B2, “4-amino-6-(pyridyl and 2-substitutedphenyl)-picolinates and 6-amino-2-(pyridyl and 2-substitutedphenyl)-pyrimidine-4-carboxylates and their use as herbicides” (Dow AgroSciences LLC, priority 2013, dated 2020).

tested on: not given; test: not given; conditions: not given

Row | melting point [°C] | Structure (SMILES)
1 | 163 to 165 | Cc1c(-c2cc(N)c(Cl)c(C(=O)O)n2)ccc(F)c1F [Compound 87]

tested on: Key Grass and Sedge Weeds as well as Grass Crops; test: Post-Emergent Test II (Table 6); format: in vivo; conditions: post-emergence, 336 h, CYPSS, 70 g ai/ha, 14 days after application, read-out: Visual Growth Reduction (%) 14 Days After Application CYPSS
Method in brief: (§1)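 Growth stage at treatment: first or second true leaf. Application: compound in acetone/DMSO diluted into an adjuvant-containing aqueous mix, sprayed at 187 L/ha at several rates. Assessment: visual 0-100% injury at 14 days against untreated plants.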

Row | Structure (SMILES) | pest or weed control at 70 g/ha [%]
2 | Cc1c(-c2cc(N)c(Cl)c(C(=O)O)n2)ccc(F)c1F [Compound 87] | 0 to 29

same assay, conditions: post-emergence, 336 h, CYPSS, 140 g ai/ha, 14 days after application, read-out: Visual Growth Reduction (%) 14 Days After Application CYPSS

Row | Structure (SMILES) | pest or weed control at 140 g/ha [%]
3 | Cc1c(-c2cc(N)c(Cl)c(C(=O)O)n2)ccc(F)c1F [Compound 87] | 0 to 29

same assay, conditions: post-emergence, 336 h, DIGSA: crabgrass (Digitaria sanguinalis), 70 g ai/ha, 14 days after application, read-out: Visual Growth Reduction (%) 14 Days After Application DIGSA

Row | Structure (SMILES) | pest or weed control at 70 g/ha [%]
4 | Cc1c(-c2cc(N)c(Cl)c(C(=O)O)n2)ccc(F)c1F [Compound 87] | 0 to 29

same assay, conditions: post-emergence, 336 h, DIGSA: crabgrass (Digitaria sanguinalis), 140 g ai/ha, 14 days after application, read-out: Visual Growth Reduction (%) 14 Days After Application DIGSA

Row | Structure (SMILES) | pest or weed control at 140 g/ha [%]
5 | Cc1c(-c2cc(N)c(Cl)c(C(=O)O)n2)ccc(F)c1F [Compound 87] | 0 to 29

same assay, conditions: post-emergence, 336 h, ECHSS, 70 g ai/ha, 14 days after application, read-out: Visual Growth Reduction (%) 14 Days After Application ECHSS

Row | Structure (SMILES) | pest or weed control at 70 g/ha [%]
6 | Cc1c(-c2cc(N)c(Cl)c(C(=O)O)n2)ccc(F)c1F [Compound 87] | 0 to 29

same assay, conditions: post-emergence, 336 h, ECHSS, 140 g ai/ha, 14 days after application, read-out: Visual Growth Reduction (%) 14 Days After Application ECHSS

Row | Structure (SMILES) | pest or weed control at 140 g/ha [%]
7 | Cc1c(-c2cc(N)c(Cl)c(C(=O)O)n2)ccc(F)c1F [Compound 87] | 0 to 29

same assay, conditions: post-emergence, 336 h, ORYSS (crop), 70 g ai/ha, 14 days after application, read-out: Visual Growth Reduction (%) 14 Days After Application ORYSS

Row | Structure (SMILES) | pest or weed control at 70 g/ha [%]
8 | Cc1c(-c2cc(N)c(Cl)c(C(=O)O)n2)ccc(F)c1F [Compound 87] | 0 to 29

same assay, conditions: post-emergence, 336 h, ORYSS (crop), 140 g ai/ha, 14 days after application, read-out: Visual Growth Reduction (%) 14 Days After Application ORYSS

Row | Structure (SMILES) | pest or weed control at 140 g/ha [%]
9 | Cc1c(-c2cc(N)c(Cl)c(C(=O)O)n2)ccc(F)c1F [Compound 87] | 0 to 29

same assay, conditions: post-emergence, 336 h, SETFA: giant foxtail (Setaria faberi), 70 g ai/ha, 14 days after application, read-out: Visual Growth Reduction (%) 14 Days After Application SETFA

Row | Structure (SMILES) | pest or weed control at 70 g/ha [%]
10 | Cc1c(-c2cc(N)c(Cl)c(C(=O)O)n2)ccc(F)c1F [Compound 87] | 0 to 29

same assay, conditions: post-emergence, 336 h, SETFA: giant foxtail (Setaria faberi), 140 g ai/ha, 14 days after application, read-out: Visual Growth Reduction (%) 14 Days After Application SETFA

Row | Structure (SMILES) | pest or weed control at 140 g/ha [%]
11 | Cc1c(-c2cc(N)c(Cl)c(C(=O)O)n2)ccc(F)c1F [Compound 87] | 0 to 29

same assay, conditions: post-emergence, 336 h, SORVU: grain sorghum (Sorghum vulgare), 70 g ai/ha, 14 days after application, read-out: Visual Growth Reduction (%) 14 Days After Application SORVU

Row | Structure (SMILES) | pest or weed control at 70 g/ha [%]
12 | Cc1c(-c2cc(N)c(Cl)c(C(=O)O)n2)ccc(F)c1F [Compound 87] | 0 to 29

same assay, conditions: post-emergence, 336 h, SORVU: grain sorghum (Sorghum vulgare), 140 g ai/ha, 14 days after application, read-out: Visual Growth Reduction (%) 14 Days After Application SORVU

Row | Structure (SMILES) | pest or weed control at 140 g/ha [%]
13 | Cc1c(-c2cc(N)c(Cl)c(C(=O)O)n2)ccc(F)c1F [Compound 87] | 0 to 29

same assay, conditions: post-emergence, 336 h, TRZSS (crop), 70 g ai/ha, 14 days after application, read-out: Visual Growth Reduction (%) 14 Days After Application TRZSS

Row | Structure (SMILES) | pest or weed control at 70 g/ha [%]
14 | Cc1c(-c2cc(N)c(Cl)c(C(=O)O)n2)ccc(F)c1F [Compound 87] | 0 to 29

same assay, conditions: post-emergence, 336 h, TRZSS (crop), 140 g ai/ha, 14 days after application, read-out: Visual Growth Reduction (%) 14 Days After Application TRZSS

Row | Structure (SMILES) | pest or weed control at 140 g/ha [%]
15 | Cc1c(-c2cc(N)c(Cl)c(C(=O)O)n2)ccc(F)c1F [Compound 87] | 0 to 29

same assay, conditions: post-emergence, 336 h, ZEAMX: maize, corn (Zea mays), 70 g ai/ha, 14 days after application, read-out: Visual Growth Reduction (%) 14 Days After Application ZEAMX

Row | Structure (SMILES) | pest or weed control at 70 g/ha [%]
16 | Cc1c(-c2cc(N)c(Cl)c(C(=O)O)n2)ccc(F)c1F [Compound 87] | 0 to 29

same assay, conditions: post-emergence, 336 h, ZEAMX: maize, corn (Zea mays), 140 g ai/ha, 14 days after application, read-out: Visual Growth Reduction (%) 14 Days After Application ZEAMX

Row | Structure (SMILES) | pest or weed control at 140 g/ha [%]
17 | Cc1c(-c2cc(N)c(Cl)c(C(=O)O)n2)ccc(F)c1F [Compound 87] | 0 to 29

tested on: Key Broadleaf Weed and Crop Species; test: Post-Emergent Test II (Table 5); format: in vivo; conditions: Abutilon theophrasti, post-emergence, 336 h, ABUTH: velvetleaf (Abutilon theophrasti), application rate 70 (kg ai/ha; footnote: g ai/ha), read-out: Visual Growth Reduction (%) 14 Days After Application ABUTH
Method in brief: as §1

Row | Structure (SMILES) | pest or weed control at 70 g/ha [%]
18 | Cc1c(-c2cc(N)c(Cl)c(C(=O)O)n2)ccc(F)c1F [Compound 87] | 95 to 100

same assay, conditions: Abutilon theophrasti, post-emergence, 336 h, ABUTH: velvetleaf (Abutilon theophrasti), application rate 140 (kg ai/ha; footnote: g ai/ha), read-out: Visual Growth Reduction (%) 14 Days After Application ABUTH

Row | Structure (SMILES) | pest or weed control at 140 g/ha [%]
19 | Cc1c(-c2cc(N)c(Cl)c(C(=O)O)n2)ccc(F)c1F [Compound 87] | 95 to 100

same assay, conditions: Amaranthus retroflexus, post-emergence, 336 h, AMARE: redroot pigweed (Amaranthus retroflexus), application rate 70 (kg ai/ha; footnote: g ai/ha), read-out: Visual Growth Reduction (%) 14 Days After Application AMARE

Row | Structure (SMILES) | pest or weed control at 70 g/ha [%]
20 | Cc1c(-c2cc(N)c(Cl)c(C(=O)O)n2)ccc(F)c1F [Compound 87] | 95 to 100

same assay, conditions: Amaranthus retroflexus, post-emergence, 336 h, AMARE: redroot pigweed (Amaranthus retroflexus), application rate 140 (kg ai/ha; footnote: g ai/ha), read-out: Visual Growth Reduction (%) 14 Days After Application AMARE

Row | Structure (SMILES) | pest or weed control at 140 g/ha [%]
21 | Cc1c(-c2cc(N)c(Cl)c(C(=O)O)n2)ccc(F)c1F [Compound 87] | 95 to 100

same assay, conditions: Brassica napus, post-emergence, 336 h, BRSSS: oilseed rape, canola (Brassica napus), application rate 70 (kg ai/ha; footnote: g ai/ha), read-out: Visual Growth Reduction (%) 14 Days After Application BRSSS

Row | Structure (SMILES) | pest or weed control at 70 g/ha [%]
22 | Cc1c(-c2cc(N)c(Cl)c(C(=O)O)n2)ccc(F)c1F [Compound 87] | 85 to 94

same assay, conditions: Brassica napus, post-emergence, 336 h, BRSSS: oilseed rape, canola (Brassica napus), application rate 140 (kg ai/ha; footnote: g ai/ha), read-out: Visual Growth Reduction (%) 14 Days After Application BRSSS

Row | Structure (SMILES) | pest or weed control at 140 g/ha [%]
23 | Cc1c(-c2cc(N)c(Cl)c(C(=O)O)n2)ccc(F)c1F [Compound 87] | 85 to 94

same assay, conditions: Chenopodium album, post-emergence, 336 h, CHEAL: lambsquarters (Chenopodium album), application rate 70 (kg ai/ha; footnote: g ai/ha), read-out: Visual Growth Reduction (%) 14 Days After Application CHEAL

Row | Structure (SMILES) | pest or weed control at 70 g/ha [%]
24 | Cc1c(-c2cc(N)c(Cl)c(C(=O)O)n2)ccc(F)c1F [Compound 87] | 95 to 100

same assay, conditions: Chenopodium album, post-emergence, 336 h, CHEAL: lambsquarters (Chenopodium album), application rate 140 (kg ai/ha; footnote: g ai/ha), read-out: Visual Growth Reduction (%) 14 Days After Application CHEAL

Row | Structure (SMILES) | pest or weed control at 140 g/ha [%]
25 | Cc1c(-c2cc(N)c(Cl)c(C(=O)O)n2)ccc(F)c1F [Compound 87] | 95 to 100

same assay, conditions: Euphorbia heterophylla, post-emergence, 336 h, EPHHL: wild poinsettia (Euphorbia heterophylla), application rate 70 (kg ai/ha; footnote: g ai/ha), read-out: Visual Growth Reduction (%) 14 Days After Application EPHHL

Row | Structure (SMILES) | pest or weed control at 70 g/ha [%]
26 | Cc1c(-c2cc(N)c(Cl)c(C(=O)O)n2)ccc(F)c1F [Compound 87] | 0 to 29

same assay, conditions: Euphorbia heterophylla, post-emergence, 336 h, EPHHL: wild poinsettia (Euphorbia heterophylla), application rate 140 (kg ai/ha; footnote: g ai/ha), read-out: Visual Growth Reduction (%) 14 Days After Application EPHHL

Row | Structure (SMILES) | pest or weed control at 140 g/ha [%]
27 | Cc1c(-c2cc(N)c(Cl)c(C(=O)O)n2)ccc(F)c1F [Compound 87] | 0 to 29

same assay, conditions: Helianthus annuus, post-emergence, 336 h, HELAN: sunflower (Helianthus annuus), application rate 70 (kg ai/ha; footnote: g ai/ha), read-out: Visual Growth Reduction (%) 14 Days After Application HELAN

Row | Structure (SMILES) | pest or weed control at 70 g/ha [%]
28 | Cc1c(-c2cc(N)c(Cl)c(C(=O)O)n2)ccc(F)c1F [Compound 87] | 85 to 94

same assay, conditions: Helianthus annuus, post-emergence, 336 h, HELAN: sunflower (Helianthus annuus), application rate 140 (kg ai/ha; footnote: g ai/ha), read-out: Visual Growth Reduction (%) 14 Days After Application HELAN

Row | Structure (SMILES) | pest or weed control at 140 g/ha [%]
29 | Cc1c(-c2cc(N)c(Cl)c(C(=O)O)n2)ccc(F)c1F [Compound 87] | 95 to 100

same assay, conditions: Viola tricolor, post-emergence, 336 h, VIOTR: wild pansy (Viola tricolor), application rate 70 (kg ai/ha; footnote: g ai/ha), read-out: Visual Growth Reduction (%) 14 Days After Application VIOTR

Row | Structure (SMILES) | pest or weed control at 70 g/ha [%]
30 | Cc1c(-c2cc(N)c(Cl)c(C(=O)O)n2)ccc(F)c1F [Compound 87] | 0 to 29

same assay, conditions: Viola tricolor, post-emergence, 336 h, VIOTR: wild pansy (Viola tricolor), application rate 140 (kg ai/ha; footnote: g ai/ha), read-out: Visual Growth Reduction (%) 14 Days After Application VIOTR

Row | Structure (SMILES) | pest or weed control at 140 g/ha [%]
31 | Cc1c(-c2cc(N)c(Cl)c(C(=O)O)n2)ccc(F)c1F [Compound 87] | 0 to 29
